Results taken from patent US10703733B2, “MCL-1 inhibitors” (Gilead Sciences, Inc., priority 2018, dated 2020).

Experiments:
SKBR3 cells = assay: SKBR3 Cell Viability Assay (CellTiter Glo); assay type: cell-based; conditions: Homo sapiens, SK-BR-3, 72 h, CellTiter Glo luminescence, read-out: MCL-1 CV SKBR3 EC50
How it was run: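 SKBR3 cells (6,000/well) in McCoy 5A + 10% FBS exposed to serially diluted compound for 72 h at 37° C., 5% CO2. Viability by CellTiter Glo luminescence; % inhibition normalized to DMSO (negative) and 10 μM puromycin (positive).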

[1] = molecular target: MCL-1/Bim interaction (recombinant human MCL-1 protein, residues 171-327; biotinylated human Bim peptide, residues 51-76) (Homo sapiens (Human), UniProt Q07820); assay: MCL-1/Bim Binding AlphaLISA Assay; conditions: 0.0625 nM 6xHis-Mcl-1 (171-327), 0.0625 nM biotinylated-Bim peptide
How it was run: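 AlphaLISA with 0.0625 nM His-tagged MCL-1 and 0.0625 nM biotin-Bim peptide in 20 mM Hepes pH 7.5, 150 mM NaCl, 0.002% Brij 35, 1 mM DTT, 0.01% BSA. Compound preincubated 1 h with MCL-1, Bim added for 2 h, then acceptor and donor beads 1 h each.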

Chain of MCL-1/Bim interaction (recombinant human MCL-1 protein, residues 171-327; biotinylated human Bim peptide, residues 51-76) (Q07820 171-327): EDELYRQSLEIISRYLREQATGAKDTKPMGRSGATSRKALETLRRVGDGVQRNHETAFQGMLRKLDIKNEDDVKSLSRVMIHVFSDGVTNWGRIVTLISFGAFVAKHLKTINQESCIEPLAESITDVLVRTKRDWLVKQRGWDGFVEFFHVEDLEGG

Row | Structure (SMILES) | EC50 (SKBR3 cells) [nM] | IC50 [1] [nM]
1 | C[C@H]1C/C=C/[C@H](O)[C@@H]2CC[C@H]2CN2C[C@@]3(CCCc4cc(Cl)ccc43)COc3ccc(cc32)C(=O)N=[S@](=O)(NC(=O)N[C@H]2C[C@@H]2C(F)F)C1 [Example 321] | 47.1 | 0.037
2 | CO[C@@H]1CC[C@@H](NC(=O)N[S@@]2(=O)=NC(=O)c3ccc4c(c3)N(C[C@@H]3CC[C@H]3[C@@H](OC)/C=C/C[C@H](C)C2)C[C@@]2(CCCc3cc(Cl)ccc32)CO4)C1 [Example 322] | 64.4 | 0.057
3 | CO[C@H]1/C=C/C[C@H](C)C[S@@](=O)(NC(=O)N2CC(F)(F)C2)=NC(=O)c2ccc3c(c2)N(C[C@@H]2CC[C@H]21)C[C@@]1(CCCc2cc(Cl)ccc21)CO3 [Example 323] | 170 | 0.158
4 | CO[C@H]1/C=C/C[C@H](C)C[S@@](=O)(NC(=O)N2CC3(C2)CC3(F)F)=NC(=O)c2ccc3c(c2)N(C[C@@H]2CC[C@H]21)C[C@@]1(CCCc2cc(Cl)ccc21)CO3 [Example 324] | 37.9 | 0.058
5 | COC[C@H]1Cn2cc(C(=O)N[S@@]3(=O)=NC(=O)c4ccc5c(c4)N(C[C@@H]4CC[C@H]4[C@@H](O)/C=C/C[C@H](C)C3)C[C@@]3(CCCc4cc(Cl)ccc43)CO5)cc2CO1 [Example 325] | 50.3 | 0.1
6 | COC[C@@H]1Cn2cc(C(=O)N[S@@]3(=O)=NC(=O)c4ccc5c(c4)N(C[C@@H]4CC[C@H]4[C@@H](O)/C=C/C[C@H](C)C3)C[C@@]3(CCCc4cc(Cl)ccc43)CO5)cc2CO1 [Example 326] | 52.6 | 0.076
7 | C[C@@H]1[C@@H](C)C/C=C/[C@H](O)[C@@H]2CC[C@H]2CN2C[C@@]3(CCCc4cc(Cl)ccc43)COc3ccc(cc32)C(=O)N=[S@]1(=O)NC(=O)c1cc2n(c1)C[C@H](CN1CCOCC1)OC2 [Example 327] | 28.6 | 0.051
8 | CO[C@H]1/C=C/C[C@H](C)C[S@@](=O)(NC(=O)N[C@H]2C[C@@H]2CN2CCOCC2)=NC(=O)c2ccc3c(c2)N(C[C@@H]2CC[C@H]21)C[C@@]1(CCCc2cc(Cl)ccc21)CO3 [Example 328] | 72.2 | 0.049
9 | C[C@@H]1[C@@H](C)C/C=C/[C@H](O)[C@@H]2CC[C@H]2CN2C[C@@]3(CCCc4cc(Cl)ccc43)COc3ccc(cc32)C(=O)N=[S@]1(=O)NC(=O)c1cc2n(c1)C[C@H](CO)OC2 [Example 329] | 57 | 0.087
10 | CO[C@H]1/C=C/C[C@H](C)C[S@@](=O)(NC(=O)N2CCC(OC(F)F)CC2)=NC(=O)c2ccc3c(c2)N(C[C@@H]2CC[C@H]21)C[C@@]1(CCCc2cc(Cl)ccc21)CO3 [Example 330] | 56.4 | 0.03
11 | COCC1(COC)Cn2cc(C(=O)N[S@@]3(=O)=NC(=O)c4ccc5c(c4)N(C[C@@H]4CC[C@H]4[C@@H](O)/C=C/C[C@H](C)[C@H]3C)C[C@@]3(CCCc4cc(Cl)ccc43)CO5)cc2CO1 [Example 331] | 68.9 | 0.075
12 | CO[C@H]1/C=C/C[C@H](C)C[S@@](=O)(NC(=O)c2cc(C(=O)N(C)C)n(C)c2)=NC(=O)c2ccc3c(c2)N(C[C@@H]2CC[C@H]21)C[C@@]1(CCCc2cc(Cl)ccc21)CO3 [Example 332] | 51.1 | 0.071
13 | CO[C@H]1/C=C/C[C@H](C)C[S@@](=O)(NC(=O)N2CC(N(C)C)C2)=NC(=O)c2ccc3c(c2)N(C[C@@H]2CC[C@H]21)C[C@@]1(CCCc2cc(Cl)ccc21)CO3 [Example 333] | 38.3 | 0.039
14 | CO[C@H]1/C=C/C[C@H](C)C[S@@](=O)(NC(=O)N2CCN3CCOC[C@H]3C2)=NC(=O)c2ccc3c(c2)N(C[C@@H]2CC[C@H]21)C[C@@]1(CCCc2cc(Cl)ccc21)CO3 [Example 334] | 48.6 | 0.041
15 | CO[C@H]1/C=C/C[C@H](C)C[S@@](=O)(NC(=O)N[C@H]2C[C@H](COC(=O)N(C)C)C2)=NC(=O)c2ccc3c(c2)N(C[C@@H]2CC[C@H]21)C[C@@]1(CCCc2cc(Cl)ccc21)CO3 [Example 335] | 66.2 | 0.235
16 | CO[C@H]1/C=C/C[C@H](C)C[S@@](=O)(NC(=O)N[C@H]2C[C@@H](COC(=O)N(C)C)C2)=NC(=O)c2ccc3c(c2)N(C[C@@H]2CC[C@H]21)C[C@@]1(CCCc2cc(Cl)ccc21)CO3 [Example 336] | 60.4 | 0.1
17 | COCCn1cc(C(=O)N[S@@]2(=O)=NC(=O)c3ccc4c(c3)N(C[C@@H]3CC[C@H]3[C@@H](OC)/C=C/C[C@H](C)C2)C[C@@]2(CCCc3cc(Cl)ccc32)CO4)cc1COC [Example 337] | 86.4 | 0.05
18 | COCCCn1cc(C(=O)N[S@@]2(=O)=NC(=O)c3ccc4c(c3)N(C[C@@H]3CC[C@H]3[C@@H](OC)/C=C/C[C@H](C)C2)C[C@@]2(CCCc3cc(Cl)ccc32)CO4)cc1COC [Example 338] | 124 | 0.09

Row | Structure (SMILES) | EC50 (SKBR3 cells) [nM] | IC50 [1] [nM]
19 | COCc1oc(C(=O)N[S@@]2(=O)=NC(=O)c3ccc4c(c3)N(C[C@@H]3CC[C@H]3[C@@H](OC)/C=C/C[C@H](C)C2)C[C@@]2(CCCc3cc(Cl)ccc32)CO4)cc1C [Example 339] | 53.2 | 0.07
20 | CO[C@H]1/C=C/C[C@H](C)C[S@@](=O)(NC(=O)NC23COC(C)(C2)C3)=NC(=O)c2ccc3c(c2)N(C[C@@H]2CC[C@H]21)C[C@@]1(CCCc2cc(Cl)ccc21)CO3 [Example 340] | 37.1 | 0.031
21 | COc1nn(C)cc1C(=O)N[S@@]1(=O)=NC(=O)c2ccc3c(c2)N(C[C@@H]2CC[C@H]2[C@@H](O)/C=C\C[C@H](C)[C@H]1C)C[C@@]1(CCCc2cc(Cl)ccc21)CO3 [Example 343] | 17.3 | 0.019
22 | COC[C@H]1Cn2cc(C(=O)N[S@@]3(=O)=NC(=O)c4ccc5c(c4)N(C[C@@H]4CC[C@H]4[C@@H](O)/C=C/C[C@H](C)[C@H]3C)C[C@@]3(CCCc4cc(Cl)ccc43)CO5)cc2CO1 [Example 344] | 18.5 | 0.049
23 | COC[C@@H]1Cn2cc(C(=O)N[S@@]3(=O)=NC(=O)c4ccc5c(c4)N(C[C@@H]4CC[C@H]4[C@@H](O)/C=C/C[C@H](C)[C@H]3C)C[C@@]3(CCCc4cc(Cl)ccc43)CO5)cc2CO1 [Example 345] | 22.6 | 0.037
24 | COCC1CN(C(=O)N[S@@]2(=O)=NC(=O)c3ccc4c(c3)N(C[C@@H]3CC[C@H]3[C@@H](OC)/C=C/C[C@H](C)C2)C[C@@]2(CCCc3cc(Cl)ccc32)CO4)C1 [Example 346] | 30.9 | 0.031
25 | CO[C@H]1CCN(C(=O)N[S@@]2(=O)=NC(=O)c3ccc4c(c3)N(C[C@@H]3CC[C@H]3[C@@H](OC)/C=C/C[C@H](C)C2)C[C@@]2(CCCc3cc(Cl)ccc32)CO4)C1 [Example 347] | 79.8 | 0.084
26 | CO[C@H]1/C=C/C[C@H](C)C[S@@](=O)(NC(=O)N2CC(n3ccnc3)C2)=NC(=O)c2ccc3c(c2)N(C[C@@H]2CC[C@H]21)C[C@@]1(CCCc2cc(Cl)ccc21)CO3 [Example 348] | 84.7 | 0.041
27 | CO[C@H]1/C=C/C[C@H](C)C[S@@](=O)(NC(=O)N2CC(N3CCOCC3)C2)=NC(=O)c2ccc3c(c2)N(C[C@@H]2CC[C@H]21)C[C@@]1(CCCc2cc(Cl)ccc21)CO3 [Example 349] | 33.7 | 0.026
28 | CO[C@@H]1CCN(C(=O)N[S@@]2(=O)=NC(=O)c3ccc4c(c3)N(C[C@@H]3CC[C@H]3[C@@H](OC)/C=C/C[C@H](C)C2)C[C@@]2(CCCc3cc(Cl)ccc32)CO4)C1 [Example 350] | 75.6 | 0.055
29 | CO[C@H]1/C=C/C[C@H](C)C[S@@](=O)(NC(=O)N2CC(C(F)F)C2)=NC(=O)c2ccc3c(c2)N(C[C@@H]2CC[C@H]21)C[C@@]1(CCCc2cc(Cl)ccc21)CO3 [Example 351] | 58.8 | 0.035
30 | CO[C@H]1/C=C/C[C@H](C)C[S@@](=O)(NC(=O)N2CC(Oc3cccnc3)C2)=NC(=O)c2ccc3c(c2)N(C[C@@H]2CC[C@H]21)C[C@@]1(CCCc2cc(Cl)ccc21)CO3 [Example 352] | 54.4 | 0.046
31 | COc1nn(C)cc1C(=O)N[S@@]1(=O)=NC(=O)c2ccc3c(c2)N(C[C@@H]2CC[C@H]2[C@H](O)/C=C/C[C@H](C)[C@H]1C)C[C@@]1(CCCc2cc(Cl)ccc21)CO3 [Example 353] | 257 | 0.103
32 | CO[C@H]1/C=C/C[C@H](C)C[S@@](=O)(NC(=O)N2CC(OC(F)F)C2)=NC(=O)c2ccc3c(c2)N(C[C@@H]2CC[C@H]21)C[C@@]1(CCCc2cc(Cl)ccc21)CO3 [Example 354] | 36.9 | 0.039
33 | CO[C@H]1/C=C/C[C@H](C)C[S@@](=O)(NC(=O)N2CC(CC(F)F)C2)=NC(=O)c2ccc3c(c2)N(C[C@@H]2CC[C@H]21)C[C@@]1(CCCc2cc(Cl)ccc21)CO3 [Example 355] | 67.4 | 0.062
34 | CO[C@H]1/C=C/C[C@H](C)C[S@@](=O)(NC(=O)c2cn(C)nc2OCC2OCCO2)=NC(=O)c2ccc3c(c2)N(C[C@@H]2CC[C@H]21)C[C@@]1(CCCc2cc(Cl)ccc21)CO3 [Example 356] | 233 | 0.081
35 | CO[C@H]1/C=C/C[C@H](C)C[S@@](=O)(NC(=O)N[C@H]2C[C@H](F)C2)=NC(=O)c2ccc3c(c2)N(C[C@@H]2CC[C@H]21)C[C@@]1(CCCc2cc(Cl)ccc21)CO3 [Example 357] | 206 | 0.113
36 | COC(=O)c1cc(C(=O)N[S@@]2(=O)=NC(=O)c3ccc4c(c3)N(C[C@@H]3CC[C@H]3[C@@H](OC)/C=C/C[C@H](C)C2)C[C@@]2(CCCc3cc(Cl)ccc32)CO4)cn1C [Example 358] | 95.1 | 0.114
